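Cells were grown in 96-well plates and exposed to each compound for 48 hours at five concentrations; endpoints were interpolated linearly between bracketing concentrations, or set to the highest concentration if not reached. Here, GI50 denotes the concentration required for 50% inhibition of growth. TGI: concentration producing complete growth inhibition.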
What was measured:
Test in all cases: growth of human tumour cells (NCI), 48 h
KM12 colon = test system: KM12 colon
HT29 colon = test system: HT29 colon
MOLT-4 leukemia = test system: MOLT-4 leukemia
HOP-92 NSCLC = test system: HOP-92 NSCLC
U251 CNS = test system: U251 CNS
TK-10 renal = test system: TK-10 renal
CCRF-CEM leukemia = test system: CCRF-CEM leukemia
SNB-75 CNS = test system: SNB-75 CNS

SMILES | TGI (KM12 colon) [µM] | TGI (HT29 colon) [µM] | TGI (MOLT-4 leukemia) [µM] | TGI (HOP-92 NSCLC) [µM] | TGI (U251 CNS) [µM] | TGI (TK-10 renal) [µM] | GI50 (KM12 colon) [µM] | GI50 (HT29 colon) [µM] | GI50 (MOLT-4 leukemia) [µM] | GI50 (CCRF-CEM leukemia) [µM] | TGI (CCRF-CEM leukemia) [µM] | GI50 (HOP-92 NSCLC) [µM] | GI50 (U251 CNS) [µM] | GI50 (SNB-75 CNS) [µM] | TGI (SNB-75 CNS) [µM] | GI50 (TK-10 renal) [µM]
OCCCN=C1CCCCC1 | > 100 | > 100 | > 100 | > 100 | > 100 | > 100 | – | – | – | – | – | – | – | – | – | –
COc1cc2ncn(-c3cc(OCc4ccccc4C(F)(F)F)c(C(N)=O)s3)c2cc1OC | > 25 | > 25 | > 25 | 10.5 | > 19.3 | 12.8 | 0.0958 | 0.0889 | 0.13 | 0.0841 | > 25 | 2.2 | 0.206 | 2.7 | 9.31 | 3.29
O=[N+]([O-])c1cccc(/C=N/Nc2ccc3ccccc3n2)c1O | 32.9 | 20.5 | 10.7 | > 46.9 | 16.4 | > 44.9 | – | – | – | – | – | – | – | – | – | –
S=c1ssnc1-c1cc2ccccc2o1 | 35.1 | 29.3 | > 100 | 43.2 | 28.4 | 45.9 | 14.1 | 14.3 | 3.39 | 3.23 | > 100 | 18.5 | 15.1 | 23.3 | 95.8 | 22.1
Clc1ccc2c(NCCNc3nc(N4CCOCC4)nc4ccccc34)ccnc2c1 | 8.16 | 3.56 | 14.1 | 3.2 | 3.4 | 3.39 | 2.66 | 1.89 | 3.33 | 1.67 | 11.7 | 1.43 | 1.71 | 1.44 | 2.85 | 1.83
Cn1c(=O)c(-c2ccccc2Cl)cc2cnc(NC3CCOCC3)nc21 | > 25 | > 25 | > 25 | 21.6 | > 25 | > 22.9 | 21.1 | 7.02 | 10.2 | 14.8 | > 25 | 4.27 | 15.1 | 3.82 | > 25 | 6.19
COc1cc2c(c(OC)c1OC)-c1cc(I)c(O)cc1[C@@H](NC(C)=O)CC2 | 1.36 | 10.7 | > 100 | 10.9 | > 100 | > 100 | 0.0432 | 0.036 | 0.0437 | 0.0364 | > 100 | 0.0639 | 0.0483 | 0.0332 | > 92.5 | > 44.6
CC1(C)CC(O)CC(C)(C)N1O | > 100 | > 100 | > 100 | – | > 100 | > 100 | – | – | – | – | > 100 | – | > 100 | – | > 100 | –
CC(C)(C)N/N=C(/Cc1nc2c3c(ccc2[nH]c1=O)C(=O)c1ccccc1C3=O)C(=O)NC1=C(Cl)C(=O)c2ccccc2C1=O | 8.83 | 30 | > 100 | > 100 | > 100 | – | – | – | – | – | > 100 | – | – | – | 9.03 | –
COc1cc(N=Nc2cc(Cc3ccc(N(C)C)cc3)c(N)cc2N(C)C)c2ncccc2c1 | 2.31 | 2.4 | 1.22 | 1.5 | 1.94 | 4.36 | 0.646 | 0.0607 | 0.185 | 0.126 | 2.29 | 0.266 | 0.466 | 0.574 | 2.04 | 1.62
[Br][Pb]([c]1ccccc1)([c]1ccccc1)[c]1ccccc1 | 1.21 | 0.508 | – | – | 0.309 | 0.36 | 0.356 | 0.239 | 0.22 | 0.202 | > 100 | – | 0.169 | 0.0993 | 0.389 | 0.175
CCn1cc(C(=O)O)c(=O)c2cc(F)c(N3CCN(S(=O)(=O)c4ccc(Cl)cc4Cl)CC3)cc21 | > 100 | > 100 | > 100 | 5.22 | 14.7 | 23 | 3.42 | 3.63 | 3.55 | 3.03 | > 100 | 1.22 | 3.3 | – | – | 4.02
COc1cc(-c2nc(-c3ccccc3)c(-c3ccccc3)[nH]2)cc(OC)c1O | 30.4 | 35.6 | 64.9 | 35.4 | 33.2 | 50.5 | 15.1 | 17.4 | 17.1 | 23.4 | 70.4 | 17.6 | 16.3 | 11.2 | 26.4 | 25.1
O=c1c(I)c[nH]cc1I | > 100 | > 100 | > 100 | > 100 | > 100 | > 100 | > 100 | > 100 | > 100 | > 100 | > 100 | 67.1 | > 100 | > 100 | > 100 | > 100
CN1C2C=CC(=O)C1C1C(=O)N(c3ccccc3)C(=O)C12 (stereo not given) | 18.4 | 23.4 | > 100 | 0.701 | 20.8 | 18.9 | 5.17 | 3.92 | 5.99 | 7.51 | > 100 | 0.085 | 7.16 | 13 | 29.2 | 4.55
COc1ccc2nc3ccccc3c(NCCNCCO)c2c1 | 3.37 | 4.33 | 3.77 | 4.22 | 4.35 | 9.96 | 0.455 | 0.378 | 0.393 | 0.597 | 6.78 | 0.908 | 0.479 | 0.854 | 2.13 | 0.716
CC(C)(O)C1COC2=C1C(=O)c1ccccc1C2=O (stereo not given) | > 100 | > 100 | 71.2 | > 100 | > 100 | – | – | – | – | – | > 100 | – | – | – | 82 | –
O=c1ccc(N=Nc2ccccc2)ccc1O | 24.9 | 32.1 | 25.1 | 41.1 | 20.2 | 60.2 | – | – | – | – | – | – | – | – | 57.8 | –
C=C1C(=O)OC2CC(C)C(/C=C/C(C)=O)=CCC12 (stereo not given) | > 100 | > 100 | > 100 | > 100 | > 100 | > 100 | – | – | – | – | > 100 | – | – | – | > 100 | –

SMILES | TGI (KM12 colon) [µM] | TGI (HT29 colon) [µM] | TGI (MOLT-4 leukemia) [µM] | TGI (HOP-92 NSCLC) [µM] | TGI (U251 CNS) [µM] | TGI (TK-10 renal) [µM] | GI50 (KM12 colon) [µM] | GI50 (HT29 colon) [µM] | GI50 (MOLT-4 leukemia) [µM] | GI50 (CCRF-CEM leukemia) [µM] | TGI (CCRF-CEM leukemia) [µM] | GI50 (HOP-92 NSCLC) [µM] | GI50 (U251 CNS) [µM] | GI50 (SNB-75 CNS) [µM] | TGI (SNB-75 CNS) [µM] | GI50 (TK-10 renal) [µM]
C=CCC(N[C@@H](CO)c1ccccc1)c1ccc2ccccc2n1 (stereo not given in full) | > 100 | > 100 | – | – | > 100 | > 100 | > 100 | > 100 | – | 46.1 | > 100 | – | > 100 | 51.2 | > 100 | > 100
N=C(N)c1ccc2oc3ccc(C(=N)N)cc3c(=O)c2c1 | > 100 | > 100 | > 100 | > 100 | > 100 | > 100 | – | – | – | – | > 100 | – | – | – | > 100 | –
Cc1cc(NC(=O)NCc2ccc(N3C(N)=NC(N)=NC3(C)C)cc2)ccc1S(=O)(=O)F | > 100 | > 100 | > 100 | > 100 | > 100 | > 100 | 0.665 | 0.37 | 2.01 | 0.815 | > 100 | 23.2 | 0.832 | > 32.3 | > 100 | 5.5
CC(C)=C[C@@H]1C[C@H](C)[C@H]2CC[C@H](C)c3c(O)c(OC4OC(C)C(O)C(O)C4O)c(C)c1c32 (stereo not given in full) | 8.16 | 15.6 | 23.9 | 28.5 | 27.8 | 30.2 | 2.63 | 4.07 | 8.35 | 12.8 | 26.3 | 14.8 | 14.7 | 14.4 | 27.7 | 16.3
COc1ccc(-c2nsc3c2NC(=O)CC3c2ccsc2)cc1 (stereo not given) | > 34 | 32.8 | 24.1 | 81.5 | > 100 | > 100 | 0.0715 | 0.0643 | 0.514 | 0.268 | > 100 | 0.334 | 0.299 | 0.119 | > 100 | 13.8
COc1cccc(/C=C2\N=C(c3ccccc3)OC2=O)c1 | > 100 | > 100 | – | > 100 | > 100 | > 100 | – | – | – | – | 58.8 | – | – | – | 77.1 | –
Cc1cc(N2CCC(N3CCCC3)CC2)nc(/N=C(\N)Nc2ccc(Cl)c(Cl)c2)n1 | 3.64 | 3.87 | > 100 | – | 3.35 | 3.72 | 1.72 | 1.85 | 3.32 | 3.28 | > 100 | – | 1.79 | 1.58 | 3.12 | 1.93
O=[N+]([O-])c1ccccc1N=Nc1c(O)[nH]c2c(Cl)cccc12 | > 80.3 | 99.4 | > 100 | – | > 51.5 | > 54.9 | – | – | – | – | > 100 | – | – | – | 51.7 | –
Fc1ccccc1CN1COc2c(cc(Cl)c3cccnc23)C1 | 12.1 | 20.4 | 0.758 | 16.8 | 12.8 | 18 | – | – | – | – | – | – | – | – | 14.7 | –
O=C1C(Cl)=C(Nc2ccc(S(=O)(=O)c3ccc(NC4=C(Cl)C(=O)c5ccccc5C4=O)cc3)cc2)C(=O)c2ccccc21 | 5.38 | 5.02 | 5.86 | 3.44 | – | 3.04 | 2.17 | 2 | 1.87 | 1.9 | > 100 | 1.96 | – | 1.04 | 2.33 | 1.67
NC(=NCCCCCCN=C(N)/N=C(\N)Nc1ccc(Cl)cc1)/N=C(\N)Nc1ccc(Cl)cc1 | 1.74 | 5.18 | 2.84 | 3.8 | 2.77 | 8.9 | 0.927 | 1.62 | 1.09 | – | – | 1.41 | 1.07 | 1.03 | 2.92 | 2.13
Nc1nc(SCc2ccccc2CCl)c2[nH]cnc2n1 | 28.1 | 35.6 | > 100 | 67.8 | 27.3 | – | 14.8 | 17.1 | 21.4 | 28.5 | > 100 | 20 | 13.1 | 15.3 | 32.7 | –
Cc1ccc(NCCNCC(C)(C)O)c2c(=O)c3ccc(Cl)cc3sc12 | 3.13 | 3.1 | – | 1.92 | 3.06 | 3.89 | 1.63 | 1.61 | – | – | – | 0.455 | 1.67 | 1.34 | 2.85 | 2.17
Clc1ccc(C=Nc2ccc(-c3nc4ccccc4[nH]3)cc2)cc1 | > 100 | > 100 | – | > 100 | > 100 | > 100 | > 100 | > 100 | – | > 100 | > 100 | 89.1 | 65.1 | 77.7 | > 100 | > 100
CCN(CC)CCOC(COc1cc(C)cc(C)c1)COc1cc(C)cc(C)c1 | 11.7 | – | 5.73 | – | 11.5 | 14.5 | 3.04 | – | 2.08 | 2.25 | 8.24 | – | 3.12 | 5.75 | 20.8 | 3.45
CCCN1C(=O)/C(=C/c2ccc(SC(F)(F)F)cc2)SC1=Nc1ccc(OC)cc1 | > 50 | > 50 | > 50 | 19.8 | 16.9 | 19.2 | 19.7 | 17.6 | > 50 | – | – | 6.6 | 6.51 | – | – | 7.1
COc1cc(C(=O)c2cnc(-c3c[nH]c4cccc(C)c34)[nH]2)cc(OC)c1OC | > 100 | – | > 100 | 18.3 | 49.1 | – | 0.00482 | 0.00643 | 0.0378 | 0.00824 | > 100 | – | 0.00639 | 0.00257 | 36.8 | –
COC1C(OC(=O)c2ccc(C)[nH]2)C(O)C(Oc2ccc3c(O)c(NC(=O)c4ccc(O)c(CC=C(C)C)c4)c(=O)oc3c2Cl)OC1(C)C (stereo not given) | 26.1 | 29.7 | 45.8 | – | 26.8 | > 100 | – | – | – | – | 58.9 | – | – | – | 72.9 | –

— PubChem BioAssay (NCI)
